Measured values: US20050159390A1, “Treatment and prevention of HIV and other viral infections” (priority 1998, published 2005)

Experiments:
[1] = system: Molt-4; assay: Cell proliferation in treated cell lines; assay type: cell-based, human; conditions: treated cell line; 0 to 200 μM or 1000 μM
[2] = system: HIV-1IIIB; assay: CEM-SS cell-based assay, inhibition of HIV-induced cell killing (XTT); conditions: 3.2 μM to 1 mM
[3] = system: X4 strain LAI/IIIB; assay: RT activity in infected PBMCs treated with carbohydrates; assay type: cell-based, HIV; conditions: summary of Table 17
Protocol: Reverse Transcriptase Activity Assay: A microtiter based reverse transcriptase (RT) reaction was utilized as described by Buckheit et al., (1991), AIDS Research and Human Retroviruses, 7: 295-302. Tritiated thymidine triphosphate (3H-TTP) was suspended in distilled H2O at 5 Ci/mL. Poly rA and oligo dT were prepared as a stock solution which was kept at −20° C. RT reaction buffer was prepared fresh on a daily basis and contained 125 μL 1M EGTA, 125 μL dH2O, 110 μL 10% SDS, 50 μL 1M Tris (pH 7.4), 50 μL 1M DTT, and 40 μL 1M MgCl2. These three solutions were mixed together in a ratio of 2 parts 3H-TTP, 1 part poly rA:oligo dT, and 1 part reaction buffer. Ten microliters of this reaction mixture were placed in a round bottom microtiter plate and 15 μL of virus containing supernatant were added and mixed. The plate was incubated at 37° C. in a water bath with a solid support to prevent submersion of the plate and incubated for 60 minutes. […] Opti-Fluor-O (Packard) was added to each sample and incorporated radioactivity was quantified utilizing a Wallac 1450 MicroBeta Plus liquid scintillation counter. […]
No carbohydrates were added to the control sample. RT activity was determined at 3, 6, 9, 13, 17, and 20 days post-infection (PI) with X4 strain LAI/IIIB.

[4] = system: HSF; assay: Cell proliferation in treated cell lines; assay type: cell-based, Human; conditions: treated cell line; 0 to 200 μM or 1000 μM
[5] = biological target: T1, gp120 (Human immunodeficiency virus type 1 group M subtype B, UniProt P05877); assay: Inhibition of gp120 binding, HIVMN to CEM-SS cells; set-up: species or system HIV
T1 construct: host or cells: HIV MN virus added to CEM-SS cells

[6] = system: TNFα; assay: TNFα production in latently infected promonocytic U1 cells, ELISA; assay type: cell-based; conditions: read-out: Inhibition of TNFα Production % of Control
Protocol: TNFα production was determined by an enzyme linked immunosorbent assay (ELISA) in a competitive format, using a commercially available anti-TNFα antibody. Inhibition of TNFα production is reported as percent of saline control in Table 18 and was dose dependent.

[7] = system: PBMCs; assay type: cell-based, human; conditions: human, 6 days
Protocol: For the standard PBMC assay, PHA-P stimulated cells from at least two normal donors were pooled, diluted in fresh medium to a final concentration of 1×10^6 cells/mL, and plated in the interior wells of a 96 well round bottom microplate at 50 μL/well (5×10^4 cells/well). Test drug dilutions were prepared at a 2× concentration in microfuge tubes and 100 μL of each concentration was placed in appropriate wells in a standard format. A predetermined dilution of virus stock was placed in each test well (50 μL, final MOI≅0.1). Wells with cells and virus alone were used for virus control. Separate plates were prepared identically without virus for drug cytotoxicity studies using an XTT assay system. […]
Tetrazolium dye staining of screening plates: After 6 days of incubation (37° C. with 5% CO2), the test plates were analyzed by staining with the tetrazolium dye XTT (2,3-b (2-methoxy-4-nitro-5-sulfophenyl)-2H-tetrazolium-5-carboxanilide). XTT-tetrazolium is metabolized by mitochondrial enzymes of metabolically active cells to a soluble formazan product, allowing the rapid quantitative analysis of the inhibition of HIV-induced cell killing by anti-HIV compounds. […] Plates were sealed with adhesive plate sealers and inverted several times to mix the soluble formazan product and the plate was read spectrophotometrically at 450 nm with a Molecular Devices Vmax plate reader. […]

[8] = system: HepG2; assay: Cell proliferation in treated cell lines; assay type: cell-based, human; conditions: treated cell line; 0 to 200 μM or 1000 μM
[9] = system: HT1080; assay: Cell proliferation in treated cell lines; assay type: cell-based, human; conditions: treated cell line; 0 to 200 μM or 1000 μM
[10] = system: HIV-1RF; assay: CEM-SS cell-based assay, inhibition of HIV-induced cell killing (XTT); conditions: 3.2 μM to 1 mM
Protocol: Cell Preparation: Prior to infection, CEM-SS cells were grown in complete tissue culture medium (RPMI 1640 medium with 10% heat-inactivated fetal bovine serum, 2 mM L-glutamine, 100 U/mL penicillin, 100 μg/mL streptomycin, 10 μg/mL gentamycin) and transferred to T-150 flasks. On the day preceding the assay, the cells were split 1:2 to assure the cells would be in an exponential growth phase at time of infection. On the day of assay, the cells were washed twice with tissue culture medium and resuspended in fresh tissue culture medium. […]
Virus Preparation: Pre-tittered aliquots of HIV-1ROJO and HIV-1RF were removed from the freezer (−80° C.) and thawed to room temperature in a biological safety cabinet. The virus was resuspended and diluted into tissue culture medium such that the amount of virus added to each well in a volume of 50 μL will be the amount determined to give complete cell killing at 6 days post-infection.
Tetrazolium dye staining of screening plates: After 6 days of incubation (37° C. with 5% CO2), the test plates were analyzed by staining with the tetrazolium dye XTT (2,3-b (2-methoxy-4-nitro-5-sulfophenyl)-2H-tetrazolium-5-carboxanilide). XTT-tetrazolium is metabolized by mitochondrial enzymes of metabolically active cells to a soluble formazan product, allowing the rapid quantitative analysis of the inhibition of HIV-induced cell killing by anti-HIV compounds. […]

[11] = system: DU-145; assay: Cell proliferation in treated cell lines; assay type: cell-based, human; conditions: treated cell line; 0 to 200 μM or 1000 μM
[12] = system: HIV-1 MN; assay: P-24 assay, syncytia and CPE in infected PBMCs; assay type: cell-based
Protocol: PBMCs were isolated as described above and incubated with HIV-1 MN (NIH AIDS reagent program, catalog #137) at 37° C. for 3 hours in 15 mL tubes. Test groups included uninfected PBMCs, infected PBMCs with no N-glycolylneuraminic acid, and infected PBMCs plus N-glycolylneuraminic acid. […] Excess virus was removed by washing the cells with PBS one time then the cells were exposed to N-glycolylneuraminic acid. P24 output was measured using the DuPont P24 assay kit (optical density (OD) in Table 15). Syncytia formation was examined as well as cytopathic effects (CPE). […] Sample #7 (p24 123×10^6 pg HIV-1P24/ml) was excluded from the mean P24 output calculation due to a sampling error.

## O=C(CO)N[C@H]1[C@H]([C@H](O)[C@H](O)CO)OC(O)(C(=O)O)C[C@@H]1O (some centres unmarked) [N-glycolylneuraminic acid]
[1]
  % Confluency (day 5): 50%
[2]
  anti-HIV activity: did not display anti-HIV activity
[3]
  RT activity in treated cells (in words): RT activity was decreased
[4]
  % Confluency (day 5): 100%
[5]; 20 μm/ml
  Inhibition of gp120 Binding (% of control): 9.8%
[5]; 80 μm/ml
  Inhibition of gp120 Binding (% of control): 57.6%
[5]; 200 μm/ml
  Inhibition of gp120 Binding (% of control): 86.8%
[6]; 0.1 μM
  inhibition at 0.1 µM: 0%
[6]; 0.3 μM
  inhibition at 0.3 µM: 0%
[6]; 10 μM
  inhibition at 10 µM: 9.8%
[6]; 30 μM
  inhibition at 30 µM: 22.6%
[6]; 100 μM
  inhibition at 100 µM: 96%
[7]
  TC50: > 1 mM
[8]
  % Confluency (day 5): 50%
[9]
  % Confluency (day 5): 100%
[10]
  anti-HIV activity: did not display anti-HIV activity
[11]
  % Confluency (day 5): 100%
[12]; dilution 1:2
  CPE: negative
  Syncytia: negative
[12]; dilution 1:4
  CPE: negative
  Syncytia: negative
[12]; dilution 1:8
  CPE: negative
  Syncytia: negative
[12]; dilution 1:16
  CPE: negative
  Syncytia: negative
[12]; dilution 1:32
  CPE: negative
  Syncytia: negative
[12]; dilution 1:64
  CPE: negative
  Syncytia: negative
